Reference: patent US20250127702A1, “SUNSCREEN COMPOSITION WITH CRYSTALLINE ORGANIC SUNSCREEN FILTERS” (Edgewell Personal Care Brands, LLC, priority 2021, published 2025)

Assay: Amount of solvent needed to solubilize crystalline sunscreen filters
Type: physicochemical
Details: solvent: butyloctyl salicylate, capric/caprylic triglyceride
Description: This is unexpected since it theoretically takes at least 37 g of the solvent combination to solvate 3 g of bis-ethylhexyloxyphenol methoxyphenyl triazine (a filter that is harder to solubilize than even avobenzone). Similarly, the theoretical amount of octocrylene, homosalate, octisalate, octinoxate, ethylhexyl benzoate and C12-C15 alkyl benzoate to solvate 3 g of bis-ethylhexyloxyphenol methoxyphenyl triazine is 21 g. […] Additional benefits from relatively less solvent content, such as migration benefits, are discussed below.
This is unexpected since it theoretically takes at least 37 g of the solvent combination to solvate 3 g of bis-ethylhexyloxyphenol methoxyphenyl triazine (a filter that is harder to solubilize than even avobenzone) and 42.8 g of the solvent combination to solvate 15.5 g of the crystalline filter combination.

## CCCCC(CC)COc1ccc(-c2nc(-c3ccc(OC)cc3)nc(-c3ccc(OCC(CC)CCCC)cc3O)n2)c(O)c1 (centres unmarked) [bis-ethylhexyloxyphenol methoxyphenyl triazine]
Diisobutyl adipate, diethylhexyl maleate, butyl maleate, butyl oleate, isopropyl myristate
  theoretical amount of the solvent combination to solvate 3 g: at least 37 g
Dibutyl adipate and/or diisopropyl adipate
  theoretical amount of the solvent combination to solvate 3 g: at least 37 g
